Where only a bound is given, the exact number is not on record here.

T1 sequence (Q15125 whole entry): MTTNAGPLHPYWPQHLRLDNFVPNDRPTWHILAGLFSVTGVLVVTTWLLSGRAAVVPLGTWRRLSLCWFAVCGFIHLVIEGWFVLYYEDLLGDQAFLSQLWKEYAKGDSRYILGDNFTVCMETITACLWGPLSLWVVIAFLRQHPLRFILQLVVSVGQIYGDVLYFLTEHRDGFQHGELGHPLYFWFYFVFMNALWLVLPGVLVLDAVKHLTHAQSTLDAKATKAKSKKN

The first assay addresses T1, EBP (Homo sapiens, UniProt Q15125).
T1 construct: HEK293T cells were utilized as the source of EBP enzyme; endogenous in cells; host or cells: HEK293T
The assay can be described thus: EBP Functional Assay (EBP immunoaffinity LC-MS assay). It counts as biochemical.
Settings: not given
The procedure: The EBP immunoaffinity (IA) LC-MS assay measures the potency of small molecule inhibitors of EBP by quantifying their concentration-dependent changes in the enzyme's substrate and product using liquid chromatography atmospheric pressure chemical ionization multiple reaction monitoring mass spectrometry (LC-APCI MRM MS). HEK293T cells were utilized as the source of EBP enzyme. The enzyme was incubated with the small molecule inhibitors at variable concentrations for 30 min. Deuterated form of EBP substrate, zymosterol-d5 (Avanti Polar Lipids, Cat #700068P-1 mg), was then added and the plate was incubated at 37 °C for 4 h. Finally, the sterol isomers were extracted and injected to LC-APCI MRM MS. MRM transition used for the quantification for both zymosterol and dihydrolathosterol (substrate and product of EBP enzymatic reaction, respectively) is 372.3-203.2, CE 30 and DP 80 in positive ion mode. Percent conversion of the zymosterol-d5 to dehydrolathosterol-d5 was used to derive IC50 curves. Tasin-1 (1′-[(4-Methoxyphenyl)sulfonyl]-4-methyl-1,4′-bipiperidine, CAS 792927-06-1) was used as the reference small molecule inhibitor.
Percent conversion versus the compound concentration data were fit to the following 4-parameter logistic model to generate IC50 curves: […]
With `Cn1nc(C(F)(F)F)cc1S(=O)(=O)N1CC2(CC(N3CC4(COC4)C3)C2)C1` [Example 14, 6-(2-((1-Methyl-3-(trifluoromethyl)-1H-pyrazol-5-yl)sulfonyl)-2-azaspiro[3.3]heptan-6-yl)-2-oxa-6-azaspiro[3.3]heptane], the IC50 lay in the range of 500 to 3000 nM.
Molecule `Cn1nc(C(F)(F)F)cc1S(=O)(=O)N1CC2(CC(N3CC4(CCO4)C3)C2)C1` [Example 15, 6-(2-((1-Methyl-3-(trifluoromethyl)-1H-pyrazol-5-yl)sulfonyl)-2-azaspiro[3.3]heptan-6-yl)-1-oxa-6-azaspiro[3.3]heptane] gave an IC50 of 500 to 3000 nM.
For the molecule `Cc1nc(C(F)(F)F)ncc1S(=O)(=O)N1CC2(CC(N3CC4(COC4)C3)C2)C1` [Example 17, 6-(2-((4-Methyl-2-(trifluoromethyl)pyrimidin-5-yl)sulfonyl)-2-azaspiro[3.3]heptan-6-yl)-2-oxa-6-azaspiro[3.3]heptane], the IC50 was greater than 3000 nM.
The same measure, in the same setting: for `CC(C)c1cc(S(=O)(=O)N2CC3(CC(N4CCOCC4)C3)C2)n(C)n1` [Example 19, 4-(2-((3-Isopropyl-1-methyl-1H-pyrazol-5-yl)sulfonyl)-2-azaspiro[3.3]heptan-6-yl)morpholine] the value was less than 100 nM; for `COc1ncc(C)cc1S(=O)(=O)N1CC2(CC(N3CC4(COC4)C3)CO2)C1` (stereo not shown) [Example 22, 2-((2-Methoxy-5-methylpyridin-3-yl)sulfonyl)-7-(2-oxa-6-azaspiro[3.3]heptan-6-yl)-5-oxa-2-azaspiro[3.4]octane], 500 to 3000 nM.

Still in this assay, the particulars now being: HEK293T cells as source of EBP enzyme; zymosterol-d5 substrate; inhibitor 30 min, then 37 °C for 4 h; percent conversion to dehydrolathosterol-d5 by LC-APCI MRM MS; read-out: EBP Functional Assay.
As to `Cc1nc(C(F)(F)F)ccc1S(=O)(=O)N1CC2(CC(NCC3(C)COC3)C2)C1` [Example 9, 2-((2-Methyl-6-(trifluoromethyl)pyridin-3-yl)sulfonyl)-N-((3-methyloxetan-3-yl)methyl)-2-azaspiro[3.3]heptan-6-amine], the IC50 was less than 100 nM.
`Cn1nc(C(F)(F)F)cc1S(=O)(=O)N1CC2(CC(N3CCOCC3)C2)C1` [Example 10, 4-(2-((1-Methyl-3-(trifluoromethyl)-1H-pyrazol-5-yl)sulfonyl)-2-azaspiro[3.3]heptan-6-yl)morpholine]: the IC50 was 100 to 500 nM.
Regarding `Cn1nc(C(F)(F)F)cc1S(=O)(=O)N1CC2(CC(NCC3COC3)C2)C1` [Example 11, 2-((1-Methyl-3-(trifluoromethyl)-1H-pyrazol-5-yl)sulfonyl)-N-(oxetan-3-ylmethyl)-2-azaspiro[3.3]heptan-6-amine], the IC50 lay in the range of 100 to 500 nM.
Same read-out and setting: for `Cn1nc(C(F)(F)F)cc1S(=O)(=O)N1CC2(CC(NCC3(C)COC3)C2)C1` [Example 12, 2-((1-Methyl-3-(trifluoromethyl)-1H-pyrazol-5-yl)sulfonyl)-N-((3-methyloxetan-3-yl)methyl)-2-azaspiro[3.3]heptan-6-amine] the value was less than 100 nM.
Regarding `Cn1nc(C(F)(F)F)cc1S(=O)(=O)N1CC2(CC(NC3COC3)C2)C1` [Example 13, 2-((1-Methyl-3-(trifluoromethyl)-1H-pyrazol-5-yl)sulfonyl)-N-(oxetan-3-yl)-2-azaspiro[3.3]heptan-6-amine], the IC50 was in the range of 500 to 3000 nM.
Turning to `Cc1nc(C(F)(F)F)ncc1S(=O)(=O)N1CC2(CC(N3CC4(CCO4)C3)C2)C1` [Example 16, 6-(2-((4-Methyl-2-(trifluoromethyl)pyrimidin-5-yl)sulfonyl)-2-azaspiro[3.3]heptan-6-yl)-1-oxa-6-azaspiro[3.3]heptane], the IC50 is 500 to 3000 nM.
With `Cc1nc(C(F)(F)F)ccc1S(=O)(=O)NC1CC2(C1)CN(C1CCOCC1)C2` [Example 18, 2-Methyl-N-(2-(tetrahydro-2H-pyran-4-yl)-2-azaspiro[3.3]heptan-6-yl)-6-(trifluoromethyl)pyridine-3-sulfonamide], the IC50 fell in the range of 500 to 3000 nM.
The same measure, in the same setting: for `CC1CCN(C2CC3(C2)CN(S(=O)(=O)c2ccc(OC(F)F)cc2)C3)CC1` [Example 20, 2-((4-(Difluoromethoxy)phenyl)sulfonyl)-6-(4-methylpiperidin-1-yl)-2-azaspiro[3.3]heptane] the value was 500 to 3000 nM.
On the same count and under the same terms, for `COc1ncc(C)cc1S(=O)(=O)N1CC2(CC(NC3CCOCC3)CO2)C1` (stereo not shown) [Example 21, 2-((2-Methoxy-5-methylpyridin-3-yl)sulfonyl)-N-(tetrahydro-2H-pyran-4-yl)-5-oxa-2-azaspiro[3.4]octan-7-amine] the value was 500 to 3000 nM; for `COc1ncc(C)cc1S(=O)(=O)N1CC2(CC(N3CC(OC)C3)CO2)C1` (stereo not shown) [Example 23, 2-((2-Methoxy-5-methylpyridin-3-yl)sulfonyl)-7-(3-methoxyazetidin-1-yl)-5-oxa-2-azaspiro[3.4]octane], 500 to 3000 nM; for `COc1ncc(C)cc1S(=O)(=O)N1CC2(CC(NC3CCC(F)(F)CC3)CO2)C1` (stereo not shown) [Example 24, N-(4,4-Difluorocyclohexyl)-2-((2-methoxy-5-methylpyridin-3-yl)sulfonyl)-5-oxa-2-azaspiro[3.4]octan-7-amine], 100 to 500 nM.
As to `COc1ncc(C)cc1S(=O)(=O)N1CC2(CC(NC3CC(F)(F)C3)CO2)C1` (stereo not shown) [Example 25, N-(3,3-Difluorocyclobutyl)-2-((2-methoxy-5-methylpyridin-3-yl)sulfonyl)-5-oxa-2-azaspiro[3.4]octan-7-amine], the IC50 fell in the range of 500 to 3000 nM.
In the case of `N#Cc1ccc(F)c(S(=O)(=O)N2CC3(CC(NC4CCC(F)(F)CC4)CO3)C2)c1` (stereo not shown) [Example 26, 3-((7-((4,4-Difluorocyclohexyl)amino)-5-oxa-2-azaspiro[3.4]octan-2-yl)sulfonyl)-4-fluorobenzonitrile], the IC50 was in the range of 500 to 3000 nM.
Take `N#Cc1ccc(F)c(S(=O)(=O)N2CC3(CC(NC4CCOCC4)CO3)C2)c1` (stereo not shown) [Example 27, 4-Fluoro-3-((7-((tetrahydro-2H-pyran-4-yl)amino)-5-oxa-2-azaspiro[3.4]octan-2-yl)sulfonyl)benzonitrile]: the IC50 is 500 to 3000 nM.
Consider `N#Cc1cc(F)cc(S(=O)(=O)N2CC3(CC(N4CC5(COC5)C4)CO3)C2)c1` (stereo not shown) [Example 28, 3-((7-(2-Oxa-6-azaspiro[3.3]heptan-6-yl)-5-oxa-2-azaspiro[3.4]octan-2-yl)sulfonyl)-5-fluorobenzonitrile], for which the IC50 is 500 to 3000 nM.
With `Cc1cnc(S(=O)(=O)N2CC3(CCC(N4CCOCC4)C3)C2)c(C)c1` (stereo not shown) [Example 29, 4-(2-((3,5-Dimethylpyridin-2-yl)sulfonyl)-2-azaspiro[3.4]octan-6-yl)morpholine], the IC50 is 500 to 3000 nM.
For the molecule `COc1ccc(S(=O)(=O)N2CC3(CCC(N4CC5(COC5)C4)C3)C2)c(C)n1` (stereo not shown) [Example 30, 6-(2-((6-Methoxy-2-methylpyridin-3-yl)sulfonyl)-2-azaspiro[3.4]octan-6-yl)-2-oxa-6-azaspiro[3.3]heptane], the IC50 lay in the range of 500 to 3000 nM.
For the molecule `COc1ccc(S(=O)(=O)N2CC3(CCC(NC4CCC(F)(F)CC4)C3)C2)c(C)n1` (stereo not shown) [Example 31, N-(4,4-Difluorocyclohexyl)-2-((6-methoxy-2-methylpyridin-3-yl)sulfonyl)-2-azaspiro[3.4]octan-6-amine], the IC50 lay within 100 to 500 nM.
Regarding `COCCN(C)C1CCC2(C1)CN(S(=O)(=O)c1ccc(OC)nc1C)C2` (stereo not shown) [Example 32, 2-((6-Methoxy-2-methylpyridin-3-yl)sulfonyl)-N-(2-methoxyethyl)-N-methyl-2-azaspiro[3.4]octan-6-amine], the IC50 is less than 100 nM.
In the case of `COCCN(C)C1CCC2(C1)CN(S(=O)(=O)c1cc(C(F)(F)F)nn1C)C2` (stereo not shown) [Example 33, N-(2-Methoxyethyl)-N-methyl-2-((1-methyl-3-(trifluoromethyl)-1H-pyrazol-5-yl)sulfonyl)-2-azaspiro[3.4]octan-6-amine], the IC50 was 500 to 3000 nM.

Values taken from US20260365663A1, “EMOPAMIL-BINDING PROTEIN INHIBITORS AND USES THEREOF” (BIOGEN MA INC., priority 2022, published 2026).
